Measured values as given in the supplement of paper PMC13207355.

Assays:
Conditions in all cases: exposure time: 72 h
E31 [1] = patient-derived glioblastoma stem cells of proneural subtype; test: surviving fraction (nuclei count normalised to DMSO); higher = more cells surviving (less toxic)
E34 [2] = patient-derived glioblastoma stem cells of proneural subtype; test: as above
E28 [3] = patient-derived glioblastoma stem cells of classical subtype; test: as above
FT3469 [4] = normal neural stem cell line; test: as above
E57 [5] = patient-derived glioblastoma stem cells of mesenchymal subtype; test: as above
E21 [6] = patient-derived glioblastoma stem cells of mesenchymal subtype; test: as above
E13 [7] = patient-derived glioblastoma stem cells of classical subtype; test: as above
E31 [8] = test: phenotypic distance (Euclidean, principal components) from DMSO controls (arbitrary units); higher = stronger morphological change
E34 [9] = test: as above
E28 [10] = test: as above
FT3469 [11] = test: as above
E57 [12] = test: as above
E21 [13] = test: as above
E13 [14] = test: as above
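Throughout, for phenotypic distance (Euclidean, principal components) from DMSO controls: cell Painting imaging in 384-well plates, CellProfiler features reduced to at least 20 principal components, Euclidean distance versus same-plate DMSO vehicle wells (0.1% v/v), median over six images per well.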
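Throughout, for surviving fraction (nuclei count normalised to DMSO): nuclei counted by high-content imaging of Hoechst-stained cells in laminin-coated 384-well plates, relative to 0.1% DMSO vehicle wells, with staurosporine as cell-death control.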

C[C@H]1O[C@@H](O[C@H]2[C@@H](O)C[C@H](O[C@H]3[C@@H](O)C[C@H](O[C@H]4CC[C@@]5(C)[C@H](CC[C@@H]6[C@@H]5C[C@@H](O)[C@]5(C)[C@@H](C7=CC(=O)OC7)CC[C@]65O)C4)O[C@@H]3C)O[C@@H]2C)C[C@H](O)[C@@H]1O [Digoxin]
Conditions	phenotypic distance	surviving fraction
E13 [7], 4.1 nM	–	0.795
E13 [7], 12.3 nM	–	0.448
E13 [7], 37 nM	–	0.349
E13 [7], 111.1 nM	–	0.348
E13 [7], 333.3 nM	–	0.272
E13 [7], 1000 nM	–	0.306
E13 [7], 3000 nM	–	0.266
E13 [14], 4.1 nM	2.96	–
E13 [14], 12.3 nM	3.64	–
E13 [14], 37 nM	5.02	–
E13 [14], 111.1 nM	5.57	–
E13 [14], 333.3 nM	6.42	–
E13 [14], 1000 nM	6.06	–
E13 [14], 3000 nM	6.15	–
E21 [6], 4.1 nM	–	0.854
E21 [6], 12.3 nM	–	0.676
E21 [6], 37 nM	–	0.497
E21 [6], 111.1 nM	–	0.368
E21 [6], 333.3 nM	–	0.269
E21 [6], 1000 nM	–	0.266
E21 [6], 3000 nM	–	0.218
E21 [13], 4.1 nM	2.11	–
E21 [13], 12.3 nM	3.25	–
E21 [13], 37 nM	3.77	–
E21 [13], 111.1 nM	6.27	–
E21 [13], 333.3 nM	6.66	–
E21 [13], 1000 nM	5.99	–
E21 [13], 3000 nM	6.15	–
E28 [3], 4.1 nM	–	0.839
E28 [3], 12.3 nM	–	0.85
E28 [3], 37 nM	–	0.696
E28 [3], 111.1 nM	–	0.628
E28 [3], 333.3 nM	–	0.491
E28 [3], 1000 nM	–	0.452
E28 [3], 3000 nM	–	0.332
E28 [10], 4.1 nM	1	–
E28 [10], 12.3 nM	1.47	–
E28 [10], 37 nM	2.1	–
E28 [10], 111.1 nM	2.57	–
E28 [10], 333.3 nM	2.97	–
E28 [10], 1000 nM	3.74	–
E28 [10], 3000 nM	2.92	–
E31 [1], 4.1 nM	–	0.87
E31 [1], 12.3 nM	–	0.721
E31 [1], 37 nM	–	0.47
E31 [1], 111.1 nM	–	0.403
E31 [1], 333.3 nM	–	0.36
E31 [1], 1000 nM	–	0.356
E31 [1], 3000 nM	–	0.252
E31 [8], 4.1 nM	2.21	–
E31 [8], 12.3 nM	3.02	–
E31 [8], 37 nM	4.38	–
E31 [8], 111.1 nM	5.51	–
E31 [8], 333.3 nM	5.08	–
E31 [8], 1000 nM	4.94	–
E31 [8], 3000 nM	4.77	–
E34 [2], 4.1 nM	–	0.979
E34 [2], 12.3 nM	–	0.745
E34 [2], 37 nM	–	0.632
E34 [2], 111.1 nM	–	0.539
E34 [2], 333.3 nM	–	0.466
E34 [2], 1000 nM	–	0.394
E34 [2], 3000 nM	–	0.293
E34 [9], 4.1 nM	1.18	–
E34 [9], 12.3 nM	3.09	–
E34 [9], 37 nM	4.76	–
E34 [9], 111.1 nM	5.12	–
E34 [9], 333.3 nM	3.77	–
E34 [9], 1000 nM	3.7	–
E34 [9], 3000 nM	5.72	–
E57 [5], 4.1 nM	–	1
E57 [5], 12.3 nM	–	0.74
E57 [5], 37 nM	–	0.392
E57 [5], 111.1 nM	–	0.27
E57 [5], 333.3 nM	–	0.207
E57 [5], 1000 nM	–	0.166
E57 [5], 3000 nM	–	0.112
E57 [12], 4.1 nM	1.42	–
E57 [12], 12.3 nM	3.76	–
E57 [12], 37 nM	5.52	–
E57 [12], 111.1 nM	5.37	–
E57 [12], 333.3 nM	6.22	–
E57 [12], 1000 nM	6.34	–
E57 [12], 3000 nM	6.45	–
FT3469 [4], 4.1 nM	–	0.79
FT3469 [4], 12.3 nM	–	0.652
FT3469 [4], 37 nM	–	0.628
FT3469 [4], 111.1 nM	–	0.686
FT3469 [4], 333.3 nM	–	0.684
FT3469 [4], 1000 nM	–	0.577
FT3469 [4], 3000 nM	–	0.566
FT3469 [11], 4.1 nM	2.61	–
FT3469 [11], 12.3 nM	3.2	–
FT3469 [11], 37 nM	4.1	–
FT3469 [11], 111.1 nM	3.74	–
FT3469 [11], 333.3 nM	3.18	–
FT3469 [11], 1000 nM	4.16	–
FT3469 [11], 3000 nM	3.8	–

Oc1ccc(OCc2ccccc2)cc1 [Monobenzone]
Conditions	phenotypic distance	surviving fraction
E13 [7], 4.1 nM	–	1.02
E13 [7], 12.3 nM	–	1.11
E13 [7], 37 nM	–	0.916
E13 [7], 111.1 nM	–	1.04
E13 [7], 333.3 nM	–	0.962
E13 [7], 1000 nM	–	1.06
E13 [7], 3000 nM	–	0.738
E13 [14], 4.1 nM	0.73	–
E13 [14], 12.3 nM	0.686	–
E13 [14], 37 nM	0.829	–
E13 [14], 111.1 nM	0.608	–
E13 [14], 333.3 nM	0.563	–
E13 [14], 1000 nM	0.694	–
E13 [14], 3000 nM	1.62	–
E21 [6], 4.1 nM	–	1.01
E21 [6], 12.3 nM	–	1.02
E21 [6], 37 nM	–	0.985
E21 [6], 111.1 nM	–	0.974
E21 [6], 333.3 nM	–	1.01
E21 [6], 1000 nM	–	0.951
E21 [6], 3000 nM	–	0.932
E21 [13], 4.1 nM	0.533	–
E21 [13], 12.3 nM	0.297	–
E21 [13], 37 nM	0.463	–
E21 [13], 111.1 nM	0.324	–
E21 [13], 333.3 nM	0.511	–
E21 [13], 1000 nM	0.562	–
E21 [13], 3000 nM	1.35	–
E28 [3], 4.1 nM	–	1.09
E28 [3], 12.3 nM	–	1.17
E28 [3], 37 nM	–	1.12
E28 [3], 111.1 nM	–	1.02
E28 [3], 333.3 nM	–	1.04
E28 [3], 1000 nM	–	1.04
E28 [3], 3000 nM	–	0.875
E28 [10], 4.1 nM	0.962	–
E28 [10], 12.3 nM	0.487	–
E28 [10], 37 nM	0.802	–
E28 [10], 111.1 nM	0.466	–
E28 [10], 333.3 nM	0.474	–
E28 [10], 1000 nM	0.692	–
E28 [10], 3000 nM	1.42	–
E31 [1], 4.1 nM	–	1.17
E31 [1], 12.3 nM	–	1.1
E31 [1], 37 nM	–	1.24
E31 [1], 111.1 nM	–	1.19
E31 [1], 333.3 nM	–	1.04
E31 [1], 1000 nM	–	1.06
E31 [1], 3000 nM	–	0.603
E31 [8], 4.1 nM	0.6	–
E31 [8], 12.3 nM	0.685	–
E31 [8], 37 nM	0.704	–
E31 [8], 111.1 nM	0.686	–
E31 [8], 333.3 nM	0.51	–
E31 [8], 1000 nM	0.575	–
E31 [8], 3000 nM	1.87	–
E34 [2], 4.1 nM	–	1.13
E34 [2], 12.3 nM	–	0.972
E34 [2], 37 nM	–	0.966
E34 [2], 111.1 nM	–	1.13
E34 [2], 333.3 nM	–	0.984
E34 [2], 1000 nM	–	1.12
E34 [2], 3000 nM	–	1.07
E34 [9], 4.1 nM	0.726	–
E34 [9], 12.3 nM	0.858	–
E34 [9], 37 nM	0.945	–
E34 [9], 111.1 nM	0.661	–
E34 [9], 333.3 nM	0.606	–
E34 [9], 1000 nM	0.28	–
E34 [9], 3000 nM	0.624	–
E57 [5], 4.1 nM	–	1.07
E57 [5], 12.3 nM	–	1.06
E57 [5], 37 nM	–	1.14
E57 [5], 111.1 nM	–	1.05
E57 [5], 333.3 nM	–	0.979
E57 [5], 1000 nM	–	0.963
E57 [5], 3000 nM	–	0.842
E57 [12], 4.1 nM	0.522	–
E57 [12], 12.3 nM	0.58	–
E57 [12], 37 nM	1.19	–
E57 [12], 111.1 nM	1.86	–
E57 [12], 333.3 nM	0.673	–
E57 [12], 1000 nM	0.736	–
E57 [12], 3000 nM	3.91	–
FT3469 [4], 4.1 nM	–	1.35
FT3469 [4], 12.3 nM	–	1.12
FT3469 [4], 37 nM	–	1.14
FT3469 [4], 111.1 nM	–	0.963
FT3469 [4], 333.3 nM	–	1.02
FT3469 [4], 1000 nM	–	0.999
FT3469 [4], 3000 nM	–	0.689
FT3469 [11], 4.1 nM	1.23	–
FT3469 [11], 12.3 nM	0.456	–
FT3469 [11], 37 nM	0.649	–
FT3469 [11], 111.1 nM	0.576	–
FT3469 [11], 333.3 nM	1.04	–
FT3469 [11], 1000 nM	0.884	–
FT3469 [11], 3000 nM	1.07	–
